Source: a melting point compilation (Tetko et al.; mined from patent text by program, amines drawn as free bases though some values may be those of a salt)

Point of comparison: O=C(CCCC(=O)c1ccccc1)NC1CCN(Cc2ccc(Cl)c(Cl)c2)CC1, melting point 130 °C. Against it:
- CCCN(c1ccncc1)n1cc(C(C)=O)c2ccccc21 — lower, 81 to 86 °C
- O=C(O)COc1cc2c(=O)cc(C(=O)O)[nH]c2ccc1=O — higher, > 270 °C
- Nc1nnc2c3c(c(N4CCCCC4)nn12)CCCC3 — higher, 230 to 232 °C
- Cc1ccc(CC(NCc2ccc(O)cc2)c2ccccc2)cc1 (configuration not stated) — not separable, 129 to 130 °C
- COc1ccc(C2c3ccccc3C(c3ccc4c(c3)OCO4)C2c2nnn[nH]2)cc1 (configuration not stated) — higher, 155 to 157 °C
- CN(O)C(=O)c1ccc(C=Cc2ccccn2)cc1 — higher, 135 to 138 °C
- CCOC(=O)CNc1ccc2ccccc2c1 — lower, 83 to 84 °C
- CCCCOc1ccccc1-c1ncc(C(=O)O)c(=O)[nH]1 — higher, 163 to 165 °C
- CS(=O)(=O)c1ccc(-c2sc(-c3ccccc3Cl)nc2-c2ccc(F)cc2)cc1 — higher, 133 to 134 °C
- CCOCC1OC(n2cnc3c(NC4CCCC4)ncnc32)C(O)C1O (configuration not stated) — higher, 134 to 136 °C
- Cn1cc(C2=C(c3cn(CCCNCCN)c4ccccc34)C(=O)NC2=O)c2ccccc21 — higher, 190 to 193 °C
- COc1c(C2CCN(CCCCNC(=O)c3ccc(-c4ccc(NS(=O)(=O)CC(F)(F)F)cc4)cc3)CC2)ccc2c1CCCC2 — higher, 182 to 184 °C
- NCC1Cc2cc(C(F)(F)F)cc(-c3cccc(Cl)c3Cl)c2O1 (configuration not stated) — higher, 152 to 155 °C
- CCOCCn1cc2c(C3C(=O)Nc4ccc(Cl)cc43)nc(NCc3ccncc3)nc2n1 (configuration not stated) — higher, 298 to 299 °C
- O=C1c2ccc3c4cccc5cccc(c6ccc(c2c36)C(=O)N1CCO)c54 — higher, > 260 °C
- CSCC(=O)c1cc(C(C)(C)C)c(O)c(C(C)(C)C)c1 — lower, 108 to 110 °C
- Fc1ccccc1-c1ccnc2ncnn12 — higher, 168 to 172 °C
- CC(C)N(C=Nc1ccncc1O)C(C)C — lower, 77 to 79 °C
- CC(=O)c1ccc(-c2nc(O)c(C)s2)cc1 — higher, 219 to 220 °C
- CCC(=O)Nc1nc2cccc(C)c2c(=O)o1 — lower, 108 to 109 °C
- CC(C)(C)OC(=O)NCCSc1cc(-c2ccccc2)on1 — lower, 87 to 88 °C
- CCOCn1c(Sc2ccc(Cl)c(Cl)c2)cc(C#N)c1-c1ccc(Cl)cc1 — lower, 95 to 97 °C
- CCCc1c(C(=O)c2ccc(OS(=O)(=O)c3ccc(C)cc3)cc2)c2ccccn2c1C(C)=O — lower, 125 to 126 °C
- CSCCN(c1ccc(Cl)cc1[N+](=O)[O-])S(=O)(=O)c1ccc(C)cc1 — lower, 94.5 to 95.5 °C
- CCOc1ccc(Nc2cccc3ccccc23)cc1 — lower, 73 to 75 °C
- CC(C)n1c(=O)n(C(=O)NCC2(O)CCN(CC3(C(=O)O)CCCCC3)CC2)c2ccccc21 — higher, 184 °C
- N#Cc1c2c(c3c(c1N1CCCC1)Cc1ccccc1-3)Cc1ccccc1-2 — higher, 158 to 160 °C
- O=C(O)c1ccc(NCCc2cccs2)cc1 — higher, 161 to 163 °C
- COc1ccc(-c2c(-c3ccc(S(C)(=O)=O)cc3)n(C)n(C)c2=O)cc1 — higher, 245 to 247 °C
- CCOC(=O)C1=Cc2ccc(O)cc2OCC1 — higher, 131 to 132 °C
- Clc1ccc(-c2cn([C@H]3CN4CCC3CC4)nn2)cc1 — higher, 144 °C
- CC(C)CCC1(CCc2ccccc2)CC(O)=CC(=O)O1 (configuration not stated) — lower, 99 to 100 °C
- CCCCCN1C(=O)C2(COc3cc4c(cc32)OCO4)c2ccccc21 (configuration not stated) — lower, 85 to 87 °C
- CC(C#N)=C1CCN(c2ccc(N3C[C@H](CNC(=O)C(Cl)(Cl)Cl)OC3=O)cc2F)CC1 — higher, 166 to 168 °C
- O=C(O)CSc1cccc2c1S(=S)N=N2 (configuration not stated) — higher, 207 to 209 °C
- O=Cc1ccccc1C(=O)c1ccc(Br)cc1 — lower, 103 to 109 °C
- Cc1ccc(S(=O)(=O)N2CCCC(S(=O)(=O)c3cccc(Cl)c3)C2)cc1 (configuration not stated) — higher, 282 to 284 °C
- O=C1CCCc2nc(N3CCNCC3)ncc2N1 — higher, 175 to 178 °C
- CC1NC(=O)OC1c1ccc(C(F)(F)F)cc1 (configuration not stated) — higher, 158 to 159 °C
- COC(=O)C(O)CC1CCC(=O)N1 (configuration not stated) — lower, 87 to 90 °C
- O=C=Nc1c(F)cc(Cl)c2nc(Cl)sc12 — lower, 95 to 98 °C
- CN(C)C(=O)c1cn(Cc2ccccc2)c(=O)c2c1c1cc(F)ccc1n2C — higher, 192 to 193 °C
- COC(=O)SN(C(=O)NC(=O)c1c(F)cccc1F)c1ccc(Oc2ccc(C(F)(F)F)cc2Cl)cc1 — lower, 108 to 109 °C
- CCc1nc2c(N)nc3cccnc3c2n1CCCCCC(=O)N1CCOCC1 — higher, 163 to 165 °C
- CCCOc1cc(-c2c(C(=O)OCC)c(Cn3cnnc3)nc3cc(OC)c(OC)cc23)ccc1OC — higher, 154 to 155 °C
- CCCCCCCCCCCCCCCCOCC(O)CN(CC(O)COCC(O)CO)C(=O)CCCCCCCCCCCCCCC (configuration not stated) — lower, 78.2 to 79 °C
- Cc1noc(NS(=O)(=O)c2ccccc2-c2ccc(-c3ncco3)cc2CN(CC(F)(F)F)C(=O)C(C)(C)C)c1C — higher, 146 to 147 °C
- O=C(CCc1cnoc1-c1ccccc1)Nc1ccc(-n2ccnc2)cc1 — higher, 176 to 177 °C
- CNc1nc(-c2cccc(-c3ccccc3)c2)c2cc(OC)c(OC)cc2n1 — higher, 183 to 185 °C
- COc1ccc2c(c1)c1c3c(c(-c4ccccc4)cc1n2CCC(N)=O)C(=O)NC3=O — higher, 266 to 270 °C
- CC(=O)N1CCN(c2ccc(N=CNc3cc(Cl)cc(C(=Cc4ccccc4Cl)C(N)=O)c3)cc2)CC1 — higher, 259 to 260 °C
- CC(C)(C)NS(=O)(=O)c1cccs1 — lower, 80 to 82 °C
- CC(C)(C)c1cc(C(=O)Nc2ccccc2NC(=O)N(Cc2ccccc2)Cc2ccccc2)cc(C(C)(C)C)c1O — higher, 187 to 189 °C
- CCOCc1c(C)nc2c3cccc(Cl)c3ccn12 — lower, 94 to 96 °C
- Cc1oc(-c2ccccc2)nc1COc1ccc(OCc2ccccc2)cc1 — lower, 126 to 127 °C
- C=CCN1Cc2nc3c(cnn3CCCl)c(N)c2C1=O — higher, 198 to 199 °C
- CCCP(=O)(CCC)Cc1ccc(N)cc1 — lower, 104 to 106 °C
- O=C(O)C1Cc2ccccc2CN1C(=O)c1ccc(Cl)cc1 (configuration not stated) — lower, 77 to 79 °C
- CC1(C)CC(=O)C1(Br)CC(Br)(Br)Br (configuration not stated) — lower, 61 to 63 °C
- CC(C)(C)OC(=O)n1cnc2c([N+](=O)[O-])cccc21 — higher, 249 °C
- C=NOC(C(=O)O)c1cccc(NC(=O)NCC(=O)N2C(c3ccccc3)CCC2c2ccccc2)c1 (configuration not stated) — higher, 194 °C
- O=C1CCc2ccc(OCCCCN3CCN(c4cccc5cc(Cl)ccc45)CC3)nc2N1 — higher, 215 to 216 °C
- O=C(c1cccnc1)c1ccc(Cl)c([N+](=O)[O-])c1 — lower, 112 to 113 °C
- CCCc1c(N)c(C(C)=O)cc(C(C)=O)c1O — higher, 138 to 139 °C
- NCCCCCC(N)=O — lower, 49 to 50 °C
- Nc1cccc(C=C2NC(=O)NC2=O)c1 — higher, 280 to 284 °C
- COC(=O)NCCC1CN=C(c2cc3cccc(N(C)S(=O)(=O)c4cccs4)c3[nH]2)S1 (configuration not stated) — higher, 201 to 203 °C
- COC(=O)CCc1cc2cc(Cl)c(Cl)cc2[nH]1 — higher, 142 °C
- COc1cc(OC2CCN(C(=O)Cc3c[nH]cn3)CC2)ccc1CC(=O)N1CCN(c2ccccc2C)CC1C(N)=O (configuration not stated) — lower, 120 to 124 °C
- [N-]=[N+]=NCC1OC(n2c(Cl)c(C=O)c3cc(Cl)c(Cl)cc32)C(O)C1O (configuration not stated) — higher, 160 to 161 °C
- COc1cccc(OC)c1NC(=O)c1ccc2nc(N[C@@H]3CCc4ccccc43)ccc2c1 — higher, 199 °C
